Key:
[1] = test system: HL-60; assay: Antiproliferative activity against human HL-60 cells after 72 hrs by MTT assay; assay type: functional, cell-based; details: HL-60, 72 h
[2] = test system: Bel-7402; assay: Antiproliferative activity against human Bel-7402 cells after 72 hrs by SRB assay; assay type: functional, cell-based; details: Bel-7402, 72 h

| SMILES | IC50 [1] | IC50 [2] |
| --- | --- | --- |
| COc1cc2c3c(c4ccc(OC(=O)c5ccccc5)cc4c2cc1OC)CN1CCC[C@@H]1C3 | 0.455 µM | 0.428 µM |
| COc1cc2c3c(c4ccc(OCCOC(=O)[C@@H](N)C(C)C)cc4c2cc1OC)CN1CCC[C@@H]1C3 | 0.908 µM | 0.974 µM |
| COc1cc2c3c(c4ccc(OC(=O)c5cccc6nnsc56)cc4c2cc1OC)CN1CCC[C@@H]1C3 | 0.227 µM | 0.173 µM |
| COc1cc2c3c(c4ccc(OC(=O)/C=C/c5ccc6c(c5)OCO6)cc4c2cc1OC)CN1CCC[C@@H]1C3 | 0.153 µM | 0.185 µM |
| COc1cc2c3c(c4ccc(OCC#N)cc4c2cc1OC)CN1CCC[C@H]1C3 | 0.301 µM | 0.2 µM |
| COc1cc2c3c(c4ccc(OC(=O)/C=C/C=C/c5ccc6c(c5)OCO6)cc4c2cc1OC)CN1CCC[C@@H]1C3 | 0.056 µM | 0.199 µM |
| COc1cc2c3c(c4ccc(OCCOC(=O)[C@@H](N)Cc5ccccc5)cc4c2cc1OC)CN1CCC[C@@H]1C3 | 0.568 µM | 0.669 µM |
| COc1cc2c3c(c4ccc(OCCOC(=O)[C@@H](N)CC(C)C)cc4c2cc1OC)CN1CCC[C@@H]1C3 | 0.58 µM | 1.27 µM |
| COc1cc2c3c(c4ccc(OC(=O)C(C)(C)C)cc4c2cc1OC)CN1CCC[C@@H]1C3 | 0.245 µM | 0.294 µM |
| COc1cc2c3c(c4ccc(OC(=O)C5CC5)cc4c2cc1OC)CN1CCC[C@@H]1C3 | 0.181 µM | 0.765 µM |
| COc1cc2c3c(c4ccc(OC(=O)c5cccs5)cc4c2cc1OC)CN1CCC[C@@H]1C3 | 0.472 µM | 0.083 µM |
| COc1cc2c3c(c4ccc(OC(=O)C5CC5)cc4c2cc1OC)CN1CCC[C@H]1C3 | 0.611 µM | 0.877 µM |
| CCOC(=O)Oc1ccc2c3c(c4cc(OC)c(OC)cc4c2c1)C[C@H]1CCCN1C3 | 0.066 µM | 0.105 µM |
| COc1cc2c3c(c4ccc(OC(C)=O)cc4c2cc1OC)CN1CCC[C@@H]1C3 | 0.044 µM | 0.228 µM |
| COc1cc2c3c(c4ccc(OC(=O)c5cccnc5)cc4c2cc1OC)CN1CCC[C@@H]1C3 | 0.179 µM | 0.133 µM |
| COc1cc2c3c(c4ccc(OC(=O)C(C)C)cc4c2cc1OC)CN1CCC[C@H]1C3 | 0.683 µM | 1.59 µM |
| COc1cc2c3c(c4ccc(OCCOC(=O)[C@@H](N)C(C)C)cc4c2cc1OC)CN1CCC[C@H]1C3 | 7.8 µM | > 10 µM |
| COc1cc2c3c(c4ccc(OC(=O)C5CCCCC5)cc4c2cc1OC)CN1CCC[C@@H]1C3 | 0.674 µM | 0.235 µM |
| COc1cc2c3c(c4ccc(OC(=O)c5cccnc5)cc4c2cc1OC)CN1CCC[C@H]1C3 | 0.762 µM | 1.77 µM |

| SMILES | IC50 [1] | IC50 [2] |
| --- | --- | --- |
| COc1cc2c3c(c4ccc(OC(=O)c5ccccc5N)cc4c2cc1OC)CN1CCC[C@@H]1C3 | 0.025 µM | 0.083 µM |
| COc1cc2c3c(c4ccc(O)cc4c2cc1OC)CN1CCC[C@H]1C3 | 0.05 µM | 0.292 µM |
| COc1cc2c3c(c4ccc(OCCO)cc4c2cc1OC)CN1CCC[C@H]1C3 | 0.22 µM | 0.374 µM |
| COc1cc2c3c(c4ccc(OC(=O)N(C)C)cc4c2cc1OC)CN1CCC[C@H]1C3 | > 10 µM | > 10 µM |
| COc1cc2c3c(c4ccc(OCCOC(=O)[C@@H](N)Cc5c[nH]c6ccccc56)cc4c2cc1OC)CN1CCC[C@@H]1C3 | 0.112 µM | 0.248 µM |
| COc1cc2c3c(c4ccc(OC(C)=O)cc4c2cc1OC)CN1CCC[C@H]1C3 | 0.756 µM | 1.11 µM |
| COc1cc2c3c(c4ccc(OCCOC(=O)[C@H](C)N)cc4c2cc1OC)CN1CCC[C@@H]1C3 | 0.494 µM | 0.642 µM |
| COc1cc2c3c(c4ccc(O)cc4c2cc1OC)CN1CCC[C@@H]1C3 | 0.004 µM | 0.026 µM |
| COc1cc2c3c(c4ccc(OC(=O)C(C)C)cc4c2cc1OC)CN1CCC[C@@H]1C3 | 0.106 µM | 0.06 µM |
| CCOC(=O)Oc1ccc2c3c(c4cc(OC)c(OC)cc4c2c1)C[C@@H]1CCCN1C3 | 0.379 µM | 2.08 µM |
| COc1cc2c3c(c4ccc(OCCOC(=O)[C@@H]5CCCN5)cc4c2cc1OC)CN1CCC[C@@H]1C3 | 0.233 µM | 0.28 µM |
| COc1cc2c3c(c4ccc(OCCO)cc4c2cc1OC)CN1CCC[C@@H]1C3 | 0.081 µM | 0.098 µM |
| COc1cc2c3c(c4ccc(OC(=O)c5ccco5)cc4c2cc1OC)CN1CCC[C@@H]1C3 | 0.178 µM | 0.504 µM |
| COc1cc2c3c(c4ccc(OCCOC(=O)[C@H](C)N)cc4c2cc1OC)CN1CCC[C@H]1C3 | 1.08 µM | 2.83 µM |
| COc1cc2c3c(c4ccc(OC(=O)C(C)(C)C)cc4c2cc1OC)CN1CCC[C@H]1C3 | 0.219 µM | 1.54 µM |
| COc1cc2c3c(c4ccc(OCCOC(=O)[C@@H](N)Cc5ccccc5)cc4c2cc1OC)CN1CCC[C@H]1C3 | 0.6 µM | 2.28 µM |
| CC[C@H](C)[C@H](N)C(=O)OCCOc1ccc2c3c(c4cc(OC)c(OC)cc4c2c1)C[C@H]1CCCN1C3 | 0.505 µM | 0.584 µM |
| COc1cc2c3c(c4ccc(OC(=O)N(C)C)cc4c2cc1OC)CN1CCC[C@@H]1C3 | 2.83 µM | 8.26 µM |
| COc1cc2c3c(c4ccc(OC(=O)c5ccccc5)cc4c2cc1OC)CN1CCC[C@H]1C3 | 0.8 µM | 1.09 µM |
